Columns and labels:
[1] = tested on: ERK1/2 activation in HEK293T cells expressing H-RasV12; assay: RasV12-induced ERK1/2 activation in transfected HEK293T; format: cell-based, human; conditions: Fumos 20 μM or U0126 10 μM, 24 h
Protocol: DMSO treatment as control. […] (c) Fumos inhibits EGF-induced Ras activation.
HEK293T, MDA-MB-231and HeLa cell lines were obtained from CRC/PUMC. Cell lines were maintained in Dulbecco’s modified Eagle’s medium supplemented with 10% fetal bovine serum. Transfections were performed in 6-well plates according to manufacturer (Invitrogen Lipofectamine LTX).Briefly, for transient transfection of HEK293T cells, subconfluent cells in 6-well plates were incubated with 2 ml of Dulbecco’s modified Eagle’s medium containing 2.5 μg of total DNA and 7.5 μl of each Lipofectamine and Plus reagent (Invitrogen) and then serum-starved in DMEM/0.1% bovine serum albumin for 18 h. After Fumos treatment for 24 h, cells were stimulated for 5 min with 20 ng/ml EGF.
After centrifugation, the supernatant was collected.

[2] = molecular target: T1, Shp2 PTP domain (Homo sapiens, UniProt Q06124); assay: in vitro PTP assay (pNPP), Shp2 PTP domain; format: biochemical; conditions: Shp2 PTP domain; pNPP; mean ± S.E.M., triplicate; read-out: IC50
T1 sequence (Q06124 247-517 limits assumed): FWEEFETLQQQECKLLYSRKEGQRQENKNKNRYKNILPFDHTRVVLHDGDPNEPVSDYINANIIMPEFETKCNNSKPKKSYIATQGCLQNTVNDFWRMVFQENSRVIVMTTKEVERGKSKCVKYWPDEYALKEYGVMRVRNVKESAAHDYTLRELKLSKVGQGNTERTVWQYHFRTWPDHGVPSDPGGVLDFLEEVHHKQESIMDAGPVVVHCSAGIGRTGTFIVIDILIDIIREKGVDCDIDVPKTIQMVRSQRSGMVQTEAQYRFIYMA
Protocol: (§1) Plasmids for expression of His-tag fusion proteins of human PTP were constructed in PET-28a by PCR subcloning techniques. The constructions contain only the PTP domain except Full-length Shp2. Full-length Shp2 containing Tyr279-to-Ala mutant was generated by PCR-based mutagenesis. All constructs were verified by DNA sequencing. PTP-His fusion proteins were expressed in Escherichia coli BL21 and lysed in the buffer (50 mM NaH2PO4, 300 mM NaCl, 250 mM imidazole, 1 mM dithiothreitol plus 5% glycerol), purified with Ni-NTA Magnetic Agarose Beads (Qiagen). The His-tag recombinant purification protocol was carried out according to the purification under native conditions of the QIAexpress System.
(§2) The assay was set in wells of 96-well plate with a final volume of 100 μl of reaction mixture containing 10 mM of NaAc-HAc, 1 mM of ethylene diamine tetraacetic acid, 1 mM of DL-dithiothreitol and 2% of dimethyl sulfoxide, pH 5.5. Activity of the enzyme was assayed by incubating recombinant PTP protein or mutant PTP with various concentrations of Fumos in the mixture at 37 °C for 30 min. Absorbance at 405 nm was detected immediately after addition of varied concentrations of substrate, p-nitrophenyl phosphate (pNPP) to each corresponding well.

[3] = molecular target: T2, full-length Shp2 (Shp2 FL) (Homo sapiens, UniProt Q06124); assay: in vitro PTP assay (pNPP), full-length Shp2; format: biochemical; conditions: full-length Shp2 (Shp2 FL)
T2 sequence (Q06124 1-593): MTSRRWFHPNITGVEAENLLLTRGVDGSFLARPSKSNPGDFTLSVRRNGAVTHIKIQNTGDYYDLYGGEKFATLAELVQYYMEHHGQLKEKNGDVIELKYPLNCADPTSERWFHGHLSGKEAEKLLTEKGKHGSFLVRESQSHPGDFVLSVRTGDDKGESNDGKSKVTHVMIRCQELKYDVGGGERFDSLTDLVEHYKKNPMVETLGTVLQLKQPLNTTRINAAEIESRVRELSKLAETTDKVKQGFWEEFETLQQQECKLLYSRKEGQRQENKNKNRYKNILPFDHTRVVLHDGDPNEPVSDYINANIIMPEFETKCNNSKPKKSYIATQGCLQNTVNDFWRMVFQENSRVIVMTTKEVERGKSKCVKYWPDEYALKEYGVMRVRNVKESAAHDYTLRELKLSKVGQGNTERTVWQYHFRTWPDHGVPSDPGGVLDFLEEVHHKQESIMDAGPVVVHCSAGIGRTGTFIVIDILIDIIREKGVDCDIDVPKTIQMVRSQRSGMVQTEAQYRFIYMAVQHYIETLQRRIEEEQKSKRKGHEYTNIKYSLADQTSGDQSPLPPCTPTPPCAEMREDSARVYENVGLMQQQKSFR
Protocol: as §1, §2

Row | SMILES | RasV12-induced ERK1/2 activation [1] | IC50 [2] [µM] | IC50 [3] [µM]
1 | N#CC(=C(/N)Sc1ccccc1N)/C(C#N)=C(/N)Sc1ccccc1N [U0126, reference compound] | blocked ERK1/2 phosphorylation |  | 
2 | [Na+].[Na+].[Na+].[O]=[V]([O-])([O-])[O-] [sodium orthovanadate, reference compound] |  | 620 | 630

From publication PMC4667271, “Discovery of a Novel Inhibitor of the Protein Tyrosine Phosphatase Shp2” (Scientific Reports, 2015)
